Source: patent US6365621B1, “Remedies or preventives for intractable epilepsy” (Pharmaceutical Co., Ltd., priority 1998, dated 2002)
“And” between values parts separate entries of the source, which are not always exact repeats. Identical values can stand only once.

Key:
Type in all cases: in vivo, rat
[1] = test system: fully amygdala kindled rats; test: Seizures in fully amygdala kindled rats (GST stimulation); settings: for Change of ADD (%): afterdischarge duration before administration = 100; for Change of MSD (%): motor seizure duration before administration = 100
Description: [Method for preparing a kindling model] Male Wistar rats (weight: 200-250 g, Tokyo Jikken Dobutsu) were used, and pentobarbital (50 mg/kg, Dinabot) and ketamine (50 mg/kg, Sankyo Co., Ltd.) were used as anesthetic agents.
A dose-response of nefiracetam (15-180 mg/kg) with respect to a kindling seizure induced GTS stimulation intensity was evaluated in terms of the following parameters: seizure stage, and afterdischarge duration at the sitimulated amygdala and motor seizure duration.
In accordance with the method of Racine et al. (Modification of seizure activity by electrical stimulation: II motor seizure. Electroencephalography Clin. Neurophysiol. 1972. 32: 281-294), seizures were classified into the following five stages: stage 1 (chewing); stage 2 (head nodding); stage 3 (forelimb clonus); stage 4 (rearing); and stage 5 (rearing and falling).
Motor seizure duration (seconds) was represented by the total duration of stages 3 through 5. Stage 1 or Stage 2 is a seizure symptom of the limbic system, and Stage 3, 4, or 5 is regarded a motor seizure (Sato, M., Racine, R. J., McIntyre, D. C., Kindling: basic mechanisms and clinical validity, Electroencephalography Clin. Neurophysiol. 1990, 76: 459-472).
Afterdischarge duration (seconds) was recorded by use of an electrode for recording, and was represented by the seizure-discharge duration shown in a electroencephalogram, which is induced by a kindling stimulation. Nefiracetam was dissolved into a solvent (0.5% carboxymethyl cellulose) and the solution was administered orally 90 minutes before GST stimulation, wherein the amount of administered nefiracetam is classified into several stages within a range of 15-180 mg/kg.
[Method] The rats used in this Example were of the same type in terms of the source of purchase, body weight, and age (week). For each rat, in the same manner as in of Example 1, there were performed anesthetization, setting of an electrode on the amygdala, fixation of the electrode at the cranial bone, and a kindling stimulation (50 Hz, sine wave).
For non-administered rats and nefiracetam-administered rats (120 mg/kg), the effect of the administration was evaluated when GST stimulation intensity was increased by a factor of two (GST 2) or three (GST 3). The effect of 120 mg/kg of nefiracetam on kindling seizures induced by one-fold, two-fold, and three-fold GTS stimulation was evaluated in terms of the following parameters: seizure stage, motor seizure duration, and afterdischarge duration.

[2] = test system: kainate-induced cortical focal seizures; test: Kainate-induced cortical focal seizures: behavior and electroencephalogram; settings: 100 mg/kg i.v. On Decrease of Spikes: key: (+): effective; (−): ineffective. On Sedative action: key: (+): effective; (−): ineffective. On Spikes after 24 hours: key: (+): effective; (−): ineffective.
Description: [Method for measuring an electrophysiological effect] A stereotaxic operation was performed through the same manner as described in I-1 by use of Wistar male rats. A cannula was inserted in the left sensorimotor area for injection of kainic acid, and the cannula was simultaneously used as an electrode. A bipolar depth electrode was set in the bilateral caudatum, and screw electrodes were set in the right sensorimotor area, frontal sinus, and occipital bone. Seven days after operation, 1 μL of kainic acid solution (2 mg/mL) was injected so as to induce cortical focal seizures. After elapse of 1-2 hours from the injection of kainic acid, the same nefiracetam solution as described in I-1 (100 mg/kg) was intravenously injected, and behavior and electroencephalograms were recorded by use of a video electroencephalogram recorder. Suppression of seizures just after the administration of nefiracetam, changes in electroencephalograms, occurrence of seizures thereafter, and electroencephalogram observations were compared with those of the control group.

[3] = test system: kainate-induced cortical focal seizures; test: Local cerebral glucose metabolism during kainate-induced cortical focal seizures; design: key to Change in local cerebral glucose metabolism rate: →: no change; →↓: decreased in a low degree; ↓: decreased in a moderate degree; ↓↓: decreased in a high degree; settings: for Change in local cerebral glucose metabolism rate: 100 mg/kg i.v.
Description: [Method] A cannula was set in the left sensorimotor area of rats, and kinic acid was injected so as to induce seizures through the same manner as described in the experiment of I-1. Subsequently, a nefiracetam solution (100 mg/kg) was intravenously injected into each rat. After 60 minutes, [^14C] deoxyglucose was intravenously injected, and autoradiograms were produced through the same procedure as described in the experiment of I-2. A glucose utilization rate of each intracerabral structure was compared with that of the control group.

Cc1cccc(C)c1NC(=O)CN1CCCC1=O [nefiracetam, N-(2,6-dimethylphenyl)-2-(2-oxo-1-pyrrolidinyl)acetamide]
Change of stage (%) ([1]; 15 mg/kg p.o. 90 min before GST stimulation, seizure stage before administration = 100): 80.0% | Change of ADD (%) ([1]; 15 mg/kg p.o.): 81.7% | Change of stage (%) ([1]; 30 mg/kg p.o. 90 min before GST stimulation, seizure stage before administration = 100): 100.0% | Change of ADD (%) ([1]; 30 mg/kg p.o.): 99.9% | Change of stage (%) ([1]; 60 mg/kg p.o. 90 min before GST stimulation, seizure stage before administration = 100): 80.0% | Change of ADD (%) ([1]; 60 mg/kg p.o.): 83.9% | Change of stage (%) ([1]; 90 mg/kg p.o. 90 min before GST stimulation, seizure stage before administration = 100): 76.0% | Change of ADD (%) ([1]; 90 mg/kg p.o.): 82.3% | Change of stage (%) ([1]; 120 mg/kg p.o. 90 min before GST stimulation, seizure stage before administration = 100): 13.3% | Change of ADD (%) ([1]; 120 mg/kg p.o.): 25.0% | Effect on afterdischarge duration ([1]; 120 mg/kg, 3-times-GST stimulation intensity): the afterdischarge duration was restored | Change of stage (%) ([1]; 120 mg/kg, GST intensity 1-fold, before administration = 100): 16.7% | Change of MSD (%) ([1]; 120 mg/kg, GST intensity 1-fold): 11.1% | Change of stage (%) ([1]; 120 mg/kg, GST intensity 2-fold, before administration = 100): 14.7% | Change of MSD (%) ([1]; 120 mg/kg, GST intensity 2-fold): 15.2% | Change of stage (%) ([1]; 120 mg/kg, GST intensity 3-fold, before administration = 100): 52.0% | Change of MSD (%) ([1]; 120 mg/kg, GST intensity 3-fold): 43.8% | Effect on afterdischarge duration ([1]; 120 mg/kg, one-fold GST stimulation intensity): significant and strong inhibition | Effect on afterdischarge duration ([1]; 120 mg/kg, two-fold GST stimulation intensity): an effect on afterdischarge duration was reduced | Change of stage (%) ([1]; 180 mg/kg p.o. 90 min before GST stimulation, seizure stage before administration = 100): 36.0% | Change of ADD (%) ([1]; 180 mg/kg p.o.): 24.8% | Effect on seizure stage, motor seizure duration and afterdischarge duration ([1]; 15-180 mg/kg p.o., GST stimulation): dose-dependent inhibition | ED50 (effect on seizure stage) ([1]; regression curve by least-squares method, p.o., fully kindled rats): 114 mg/kg | Seizures after awakening [2]: seizures did not appear after awakening | Seizures after intravenous injection during status epilepticus [2]: the seizures disappeared immediately | Time to awakening from sedation [2]: ≤ 60 min | Decrease of Spikes ([2]; individual rats): + | Disappear of seizures ([2]; individual rats): + | Reappear of seizures ([2]; individual rats): − | Sedative action ([2]; individual rats): + | Spikes after 24 hours ([2]; individual rats): − and + (2×) | Hypermetabolism in non-focal sensorimotor area, caudatum-putamen, thalamus and hippocampus in both sides ([3]; 100 mg/kg i.v. during seizures): hypermetabolism is suppressed remarkably | Change in local cerebral glucose metabolism rate ([3]; Amygdala, focal side): →↓ | Change in local cerebral glucose metabolism rate ([3]; Amygdala, non-focal side): →↓ | Change in local cerebral glucose metabolism rate ([3]; Brain stem reticular formation, focal side): →↓ | Change in local cerebral glucose metabolism rate ([3]; Brain stem reticular formation, non-focal side): →↓ | Change in local cerebral glucose metabolism rate ([3]; Candatum-putamen, focal side): ↓ | Change in local cerebral glucose metabolism rate ([3]; Candatum-putamen, non-focal side): ↓↓ | Change in local cerebral glucose metabolism rate ([3]; Cerebellar cortex, focal side): → | Change in local cerebral glucose metabolism rate ([3]; Cerebellar cortex, non-focal side): → | Change in local cerebral glucose metabolism rate ([3]; Corpus callosum, focal side): → | Change in local cerebral glucose metabolism rate ([3]; Corpus callosum, non-focal side): → | Change in local cerebral glucose metabolism rate ([3]; Frontal lobe cortex, focal side): →↓ | Change in local cerebral glucose metabolism rate ([3]; Frontal lobe cortex, non-focal side): ↓ | Change in local cerebral glucose metabolism rate ([3]; Hypothalamaus, focal side): ↓ | Change in local cerebral glucose metabolism rate ([3]; Hypothalamaus, non-focal side): ↓ | Change in local cerebral glucose metabolism rate ([3]; Occipital lobe cortex, focal side): →↓ | Change in local cerebral glucose metabolism rate ([3]; Occipital lobe cortex, non-focal side): ↓ | Change in local cerebral glucose metabolism rate ([3]; Parietal lobe cortex, focal side): ↓ | Change in local cerebral glucose metabolism rate ([3]; Parietal lobe cortex, non-focal side): ↓↓ | Change in local cerebral glucose metabolism rate ([3]; Sensorimotor area cortex, focal side): →↓ | Change in local cerebral glucose metabolism rate ([3]; Sensorimotor area cortex, non-focal side): ↓ | Change in local cerebral glucose metabolism rate ([3]; Septal area, focal side): →↓ | Change in local cerebral glucose metabolism rate ([3]; Septal area, non-focal side): →↓ | Change in local cerebral glucose metabolism rate ([3]; Substantia nigra, focal side): →↓ | Change in local cerebral glucose metabolism rate ([3]; Substantia nigra, non-focal side): →↓ | Change in local cerebral glucose metabolism rate ([3]; Teniporal lobe cortex, focal side): →↓ | Change in local cerebral glucose metabolism rate ([3]; Teniporal lobe cortex, non-focal side): ↓ | Change in local cerebral glucose metabolism rate ([3]; Thalamus, focal side): →↓ | Change in local cerebral glucose metabolism rate ([3]; Thalamus, non-focal side): ↓ | Change in local cerebral glucose metabolism rate ([3]; hippocampus, focal side): ↓↓ | Change in local cerebral glucose metabolism rate ([3]; hippocampus, non-focal side): ↓↓
